The record followed here is article PMC12406196, “Anticoronavirus Activity of Uridine Glycoconjugates Containing a 1,2,3-Triazole Moiety” (Journal of Medicinal Chemistry, 2025).

The structures appear in SMILES notation.

This assay concerns SARS-CoV-2 S protein (S2 domain). It counts as cell-based. As to conditions: Western blot with S2-specific antibodies.
Take `CC(=O)OC[C@H]1O[C@@H](SCc2cn(C[C@H]3O[C@@H](n4ccc(=O)[nH]c4=O)[C@H](O[Si](C)(C)C(C)(C)C)[C@@H]3O[Si](C)(C)C(C)(C)C)nn2)[C@H](OC(C)=O)[C@@H](OC(C)=O)[C@H]1OC(C)=O` [Compound 21, 2′,3′-di-O-tert-Butyldimethylsilyl-5′-deoxy-5′-[4-(2″,3″,4″,6″-tetra-O-acetyl-β-D-galactopyranosylthiomethyl)-1,2-3-triazol-1-yl]-uridine]: the “S2 domain levels in the medium of SC-VLP-producing cells” value is on record as “more pronounced reduction”.
For `CC(=O)OC[C@H]1O[C@@H](SCn2cc(COC[C@H]3O[C@@H](n4ccc(=O)[nH]c4=O)[C@H](O[Si](C)(C)C(C)(C)C)[C@@H]3O[Si](C)(C)C(C)(C)C)nn2)[C@H](OC(C)=O)[C@@H](OC(C)=O)[C@@H]1OC(C)=O` [Compound 24, 2′,3′-di-O-tert-Butyldimethylsilyl-5′-O-[(1-(2″,3″,4″,6″-tetra-O-acetyl-β-D-glucopyranosylthiomethyl)-1,2-3-triazol-4-yl)-methyl]-uridine] the value was “minor alterations”.
The value for `CC(=O)OC[C@H]1O[C@@H](SCc2cn(C[C@H]3O[C@@H](n4ccc(=O)[nH]c4=O)[C@H](O[Si](C)(C)C(C)(C)C)[C@@H]3O[Si](C)(C)C(C)(C)C)nn2)[C@H](OC(C)=O)[C@@H](OC(C)=O)[C@@H]1OC(C)=O` [Compound 20, 2′,3′-di-O-tert-Butyldimethylsilyl-5′-deoxy-5′-[4-(2″,3″,4″,6″-tetra-O-acetyl-β-D-glucopyranosylthiomethyl)-1,2-3-triazol-1-yl]-uridine] was “minor alterations”; that for `CC(=O)OC[C@H]1O[C@@H](OCc2cn(C[C@H]3O[C@@H](n4ccc(=O)[nH]c4=O)[C@H](O[Si](C)(C)C(C)(C)C)[C@@H]3O[Si](C)(C)C(C)(C)C)nn2)[C@H](OC(C)=O)[C@@H](OC(C)=O)[C@H]1OC(C)=O` [Compound 15, 2′,3′-di-O-tert-Butyldimethylsilyl-5′-deoxy-5′-[4-(2″,3″,4″,6″-tetra-O-acetyl-β-D-galactopyranosyloxymethyl)-1,2-3-triazol-1-yl]-uridine] was “minor alterations”.
